# Legend:
# ARV7 = assay: Western blot assay in 22Rv1 cells: ARV7; type: cell-based, human; settings: different concentrations at 24 h, and 3 nM at different time points (FIGS. 7 and 8)
# Excerpt: (§1) Example 84: Western Blot Assay of Compound C59 in 22Rv1, PC-3, and HepG2 Cells
# (§2) (1) Materials: 22Rv1, PC-3, and HepG2 cell, anti-SRD5A1 antibody (ab167606), anti-SRD5A2 antibody (ab124877), anti-SRD5A3 antibody (PA5-107029), anti-androgen receptor (AR) antibody (CST, No. 5153), anti-GSPT1 antibody (Abcam, ab234433), anti-GADPH antibody (CST, No. 5174), anti-c-Myc antibody (CST, No. 8583), anti-α-tublin antibody (CST, No. 2125), anti-rabbit IgG, HRP-linked antibody (CST, No. 7074), electrophoresis device and membrane transfer device (LIUYI, BEIJING; DYCZ-24DN)
# (§3) Cell seeding: 22Rv1 (Cell Bank of the Chinese Academy of Sciences, TCHu100), PC-3 (Cell Bank of the Chinese Academy of Sciences, SCSP-532) and HepG2 cells (Cell Bank of the Chinese Academy of Sciences, TCHu72) were subcultured and trypsinized to prepare 6×10^5 cells/mL suspensions, seeded on 6-well plates (3 mL/well), and cultured overnight in a cell incubator at 5% CO2 and 37° C. […]
# (§4) Protein quantification: The protein was quantified using a BCA protein quantification kit. […]
# (§5) Western immunoblot assay (or Western blot, WB): SDS-PAGE gel at a proper concentration was prepared according to the molecular weight of the target protein: for example, the concentration of the separation gel was 8% and the concentration of the stacking gel was 5%. The loading volume was adjusted according to the protein quantification results. […]
# SRD5A3 = biological target: T1, SRD5A3 (Homo sapiens, UniProt Q9H8P0); assay: Western blot assay in HepG2 cells: SRD5A3; type: cell-based; settings: different concentrations at 24 h (FIG. 10)
# T1 construct: The downregulation of SRD5A3 and GSPT1 (eRF3a) proteins in PC-3 and HepG2 cells by C59; endogenous in cells; host or cells: 22Rv1, PC-3, HepG2
# T1 sequence (Q9H8P0 1-318): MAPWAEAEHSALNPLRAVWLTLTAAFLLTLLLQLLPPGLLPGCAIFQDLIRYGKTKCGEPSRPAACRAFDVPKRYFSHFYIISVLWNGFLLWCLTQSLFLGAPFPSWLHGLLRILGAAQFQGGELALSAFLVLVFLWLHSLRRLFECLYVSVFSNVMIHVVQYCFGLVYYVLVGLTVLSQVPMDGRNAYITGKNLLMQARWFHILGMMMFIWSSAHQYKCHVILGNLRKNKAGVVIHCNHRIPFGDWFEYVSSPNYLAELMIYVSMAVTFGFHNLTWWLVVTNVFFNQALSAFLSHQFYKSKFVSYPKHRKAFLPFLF
# Excerpt: as §1, §2, §3, §4, §5
# HuH-7 cells = assay: Anti-proliferative toxicity of C63 in tumor cell lines (CCK8): HuH-7; type: cell-based; settings: Homo sapiens, 72 h, 3 days, read-out: Inhibition rate
# Protocol: (§6) Example 83: Detection of Anti-Proliferative Toxicity of C63 in Some Tumor Cell Lines
# HuH-7 cells (purchased from the Cell Bank of the Chinese Academy of Sciences, Cat. No. SCSP-526) were subcultured in a culture medium (DMEM medium+[…] penicillin-streptomycin dual-antibiotic solution+10% fetal bovine serum) in an incubator at […] and 37° C.
# HuH-7 cells were seeded at 5000 cells/well (90 μL) on a 96-well plate and cultured for 24 h.
# (§7) 10 mM compound stock solutions were prepared in DMSO.
# (§8) The compound stock solution was diluted with DMSO to give DMSO solutions 1-9 at concentrations of 0 μM, 2500 μM, 500 μM, 100 μM, 20 μM, 4 μM, 0.8 μM, 0.16 μM, and 0.032 μM.
# (§9) 2 μL of each of solutions 1-9 was added to 98 μL of the medium to give mixed solutions 11-19 of the compound and the medium.
# (§10) 10 μL of each of solutions 11-19 was added to the above cell seed solution to give a total volume of 100 μL (90 μL+10 μL).
# (§11) The concentrations of the compound in the wells were 0 μM, 5.0 μM, 1.0 μM, 0.2 μM, 0.04 μM, 0.008 μM, 0.0016 μM, 0.00032 μM, and 0.000064 μM. All concentrations were in triplicate.
# (§12) After the above-treated cells were cultured for 3 days, 10 μL of the CCK8 solution (DOJINDO, Cat. No. PF725) was added to each well. The plate was incubated in an incubator at 37° C. for 1-4 h and then detected on a microplate reader for the reading at 450 nm.
# NCI-N87 cells = assay: Anti-proliferative toxicity of C63 in tumor cell lines (CCK8): NCI-N87; type: cell-based; settings: Homo sapiens, 72 h, 3 days, read-out: Inhibition rate
# Protocol: as §6
# NCI-N87 cells (purchased from the Cell Bank of the Chinese Academy of Sciences, Cat. No. TCHu130) were subcultured in a culture medium (RPMI-1640 medium+1% penicillin-streptomycin dual-antibiotic solution+10% fetal bovine serum) in an incubator at 5% carbon dioxide and 37° C.
# NCI-N87 cells were seeded at 8000 cells/well (90 μL) on a 96-well plate and cultured for 24 h.
# as §7, §8, §9, §10, §11, §12
downregulation of SRD5A3 protein (Western blot) (SRD5A3),SMILES,downregulation of ARV7 protein (Western blot) (ARV7),inhibition at 64 pM (HuH-7 cells; 0.000064 μM) [%],inhibition at 0.00032 µM (HuH-7 cells; 0.000320 μM) [%],inhibition at 0.0016 µM (HuH-7 cells; 0.001600 μM) [%],inhibition at 0.008 µM (HuH-7 cells; 0.008000 μM) [%],inhibition at 0.04 µM (HuH-7 cells; 0.040000 μM) [%],inhibition at 0.2 µM (HuH-7 cells; 0.200000 μM) [%],inhibition at 1 µM (HuH-7 cells; 1.000000 μM) [%],inhibition at 5 µM (HuH-7 cells; 5.000000 μM) [%],inhibition at 64 pM (NCI-N87 cells; 0.000064 μM) [%],inhibition at 0.00032 µM (NCI-N87 cells; 0.000320 μM) [%],inhibition at 0.0016 µM (NCI-N87 cells; 0.001600 μM) [%],inhibition at 0.008 µM (NCI-N87 cells; 0.008000 μM) [%],inhibition at 0.04 µM (NCI-N87 cells; 0.040000 μM) [%],inhibition at 0.2 µM (NCI-N87 cells; 0.200000 μM) [%],inhibition at 1 µM (NCI-N87 cells; 1.000000 μM) [%],inhibition at 5 µM (NCI-N87 cells; 5.000000 μM) [%]
downregulation,"C[C@]12C=CC(=O)N[C@@H]1CC[C@@H]1[C@@H]2CC[C@]2(C)[C@@H](C(=O)Nc3cccc(N[C@@H]4CCC[C@@H](Nc5cccc6c5C(=O)N(C5CCC(=O)NC5=O)C6=O)C4)c3)CC[C@@H]12 (stereo partly drawn) [C59, N-(3-(N—(N-(4-(2-(3-(2,6-dioxopiperidine))-isoindole-1,3-dione))-1R,3R-cyclohexanediamine))phenyl)-3-oxo-4-aza-5α-androst-1-ene-17β-carboxamide]",downregulation,–,–,–,–,–,–,–,–,–,–,–,–,–,–,–,–
–,"C[C@]12C=CC(=O)N[C@@H]1CC[C@@H]1[C@@H]2CC[C@]2(C)[C@@H](C(=O)Nc3cccc(N[C@@H]4CCC[C@@H](Nc5cccc6c5C(=O)N([C@H]5CCC(=O)NC5=O)C6=O)C4)c3)CC[C@@H]12 [C63, N-(3-(N—(N-(4-(2-(3S-(2,6-dioxopiperidine))-isoindole-1,3-dione))-1R,3R-cyclohexanediamine))phenyl)-3-oxo-4-aza-5α-androst-1-ene-17β-carboxamide]",–,13.1,59.9,77.1,79.3,78.3,78.3,75.1,73.1,7.79,32.7,61,66.7,64.1,62.5,64,65.2

# Reference: US20250213701A1, “MEDICAMENT FOR TREATING HUMAN TUMOR BASED ON ERF3A-TARGETING PROTEOLYSIS MECHANISM” (SUZHOU DEGEN BIO-MEDICAL CO., LTD., priority 2022, published 2025)
